Experimental data published in patent US20230079819A1, “COMPOUNDS AND USES THEREOF” (Foghorn Therapeutics Inc., priority 2019, published 2023).
Read-outs that look alike come from different tables or passages of the source.

Columns and labels:
BRM = target: T1, BRM (Homo sapiens, UniProt P51531); test: ATPase catalytic activity of BRM, ADP-Glo in vitro biochemical assay; conditions: 30 nM BRM, 400 μM ATP
T1 construct: made in house; host or cells: High Five insect cells

BRG-1 = target: T2, BRG-1 (Homo sapiens, UniProt P51532); test: ATPase catalytic activity of BRG-1, ADP-Glo in vitro biochemical assay; conditions: 30 nM BRG-1, 400 μM ATP
T2 construct: made in house; host or cells: High Five insect cells

[1] = ATPase catalytic activity, read-out: BRM IP50 (μM)*
[2] = ATPase catalytic activity, read-out: BRG1 IP50 (μM)*
[3] = ATPase catalytic activity, read-out: BRM IP50
[4] = ATPase catalytic activity, read-out: BRG1 IP50

T1 sequence (P51531 whole entry): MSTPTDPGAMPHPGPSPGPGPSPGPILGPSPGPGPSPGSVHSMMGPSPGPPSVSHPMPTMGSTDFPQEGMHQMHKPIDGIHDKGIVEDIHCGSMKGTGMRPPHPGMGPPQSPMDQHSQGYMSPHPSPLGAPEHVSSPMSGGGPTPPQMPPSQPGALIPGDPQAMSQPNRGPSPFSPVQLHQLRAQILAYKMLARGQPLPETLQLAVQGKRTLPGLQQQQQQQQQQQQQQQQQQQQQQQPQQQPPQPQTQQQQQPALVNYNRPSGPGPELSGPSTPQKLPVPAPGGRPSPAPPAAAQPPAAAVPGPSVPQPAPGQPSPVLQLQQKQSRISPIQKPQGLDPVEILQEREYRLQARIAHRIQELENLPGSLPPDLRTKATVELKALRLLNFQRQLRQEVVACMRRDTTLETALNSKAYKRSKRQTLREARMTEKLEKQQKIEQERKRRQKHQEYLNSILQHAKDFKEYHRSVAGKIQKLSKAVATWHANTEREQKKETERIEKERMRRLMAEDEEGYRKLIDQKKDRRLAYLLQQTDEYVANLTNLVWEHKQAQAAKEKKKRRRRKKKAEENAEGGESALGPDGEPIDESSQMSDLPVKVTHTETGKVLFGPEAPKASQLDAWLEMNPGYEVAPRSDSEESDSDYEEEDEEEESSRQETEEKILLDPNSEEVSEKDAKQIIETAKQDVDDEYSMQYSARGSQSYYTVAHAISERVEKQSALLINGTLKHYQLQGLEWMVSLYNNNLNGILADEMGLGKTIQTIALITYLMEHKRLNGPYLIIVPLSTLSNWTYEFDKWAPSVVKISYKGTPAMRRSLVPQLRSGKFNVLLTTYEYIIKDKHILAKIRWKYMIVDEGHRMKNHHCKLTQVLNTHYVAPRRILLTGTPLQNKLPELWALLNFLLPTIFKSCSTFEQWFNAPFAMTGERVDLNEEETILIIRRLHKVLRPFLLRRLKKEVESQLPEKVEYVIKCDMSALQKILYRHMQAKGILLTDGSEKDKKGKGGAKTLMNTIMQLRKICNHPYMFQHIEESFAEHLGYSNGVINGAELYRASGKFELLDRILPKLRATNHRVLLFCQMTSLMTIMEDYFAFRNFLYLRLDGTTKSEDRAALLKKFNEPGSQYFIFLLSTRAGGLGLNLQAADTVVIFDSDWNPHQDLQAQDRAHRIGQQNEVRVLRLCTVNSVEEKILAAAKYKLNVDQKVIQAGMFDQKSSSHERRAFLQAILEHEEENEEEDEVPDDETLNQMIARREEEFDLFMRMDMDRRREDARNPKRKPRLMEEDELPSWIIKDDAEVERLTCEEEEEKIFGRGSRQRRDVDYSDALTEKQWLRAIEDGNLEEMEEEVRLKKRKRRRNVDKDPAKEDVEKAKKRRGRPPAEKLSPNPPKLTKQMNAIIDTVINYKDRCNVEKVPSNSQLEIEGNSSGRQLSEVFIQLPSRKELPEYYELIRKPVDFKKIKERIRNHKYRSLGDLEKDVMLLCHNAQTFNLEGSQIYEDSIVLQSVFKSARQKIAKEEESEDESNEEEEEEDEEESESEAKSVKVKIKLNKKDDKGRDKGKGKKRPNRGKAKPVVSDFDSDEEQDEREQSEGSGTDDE
T2 sequence (P51532 whole entry): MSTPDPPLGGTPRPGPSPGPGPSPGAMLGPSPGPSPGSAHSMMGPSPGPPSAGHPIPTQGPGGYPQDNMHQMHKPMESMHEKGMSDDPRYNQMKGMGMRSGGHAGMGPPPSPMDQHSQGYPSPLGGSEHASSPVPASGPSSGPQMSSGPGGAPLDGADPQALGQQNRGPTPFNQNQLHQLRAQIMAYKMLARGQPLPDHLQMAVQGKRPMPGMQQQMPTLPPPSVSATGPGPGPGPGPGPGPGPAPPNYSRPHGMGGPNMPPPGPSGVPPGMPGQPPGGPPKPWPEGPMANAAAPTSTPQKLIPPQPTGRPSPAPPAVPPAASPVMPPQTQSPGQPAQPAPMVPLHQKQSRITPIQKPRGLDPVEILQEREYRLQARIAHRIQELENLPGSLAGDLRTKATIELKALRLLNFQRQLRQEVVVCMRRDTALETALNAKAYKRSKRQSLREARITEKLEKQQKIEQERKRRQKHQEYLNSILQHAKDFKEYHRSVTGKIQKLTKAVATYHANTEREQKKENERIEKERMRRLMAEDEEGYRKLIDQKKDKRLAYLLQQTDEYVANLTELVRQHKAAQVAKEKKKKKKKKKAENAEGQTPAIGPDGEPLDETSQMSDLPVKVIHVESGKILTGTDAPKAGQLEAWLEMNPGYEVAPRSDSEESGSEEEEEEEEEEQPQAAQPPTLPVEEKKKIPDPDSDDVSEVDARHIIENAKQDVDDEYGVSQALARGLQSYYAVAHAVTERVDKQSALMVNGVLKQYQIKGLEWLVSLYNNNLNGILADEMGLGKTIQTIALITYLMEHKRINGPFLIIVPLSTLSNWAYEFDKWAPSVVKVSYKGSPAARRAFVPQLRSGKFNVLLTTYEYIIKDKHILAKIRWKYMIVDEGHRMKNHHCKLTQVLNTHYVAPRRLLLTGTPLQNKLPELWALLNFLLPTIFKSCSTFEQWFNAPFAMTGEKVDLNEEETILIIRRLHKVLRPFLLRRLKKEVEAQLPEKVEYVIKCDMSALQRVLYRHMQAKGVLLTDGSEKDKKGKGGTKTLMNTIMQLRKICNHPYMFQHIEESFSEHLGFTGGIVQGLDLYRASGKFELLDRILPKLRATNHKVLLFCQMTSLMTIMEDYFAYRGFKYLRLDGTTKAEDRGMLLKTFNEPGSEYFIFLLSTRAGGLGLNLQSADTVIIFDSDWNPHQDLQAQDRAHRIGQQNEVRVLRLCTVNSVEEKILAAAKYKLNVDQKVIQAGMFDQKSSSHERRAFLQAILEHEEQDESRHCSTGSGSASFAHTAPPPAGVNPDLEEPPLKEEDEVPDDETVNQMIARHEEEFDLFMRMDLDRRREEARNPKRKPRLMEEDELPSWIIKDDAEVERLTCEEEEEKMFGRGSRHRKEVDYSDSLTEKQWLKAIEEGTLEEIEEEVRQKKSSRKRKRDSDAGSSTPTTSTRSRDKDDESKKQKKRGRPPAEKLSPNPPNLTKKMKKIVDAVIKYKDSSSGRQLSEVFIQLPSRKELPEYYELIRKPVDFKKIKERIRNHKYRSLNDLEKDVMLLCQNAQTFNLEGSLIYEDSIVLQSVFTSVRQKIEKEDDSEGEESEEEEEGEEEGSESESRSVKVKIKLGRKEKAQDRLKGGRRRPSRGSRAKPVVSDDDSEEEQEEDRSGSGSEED

IC50 (BRM; [1])	IC50 (BRG-1; [2])	IC50 (BRM; [3])	IC50 (BRG-1; [4])	Compound	also measured
< 0.01 µM	< 0.01 µM			COC[C@H](NC(=O)c1ccn(S(C)(=O)=O)c1)C(=O)Nc1nc(-c2cccc(-c3ccnc(C(F)F)c3)c2)cs1 [Compound 359]	
> 0.01 µM	> 0.01 µM			CS(=O)(=O)n1ccc(C(=O)NCC(=O)Nc2nc(-c3cccc(N4CCCCC4)c3)cs2)c1 [Compound 242]	
		> 0.1 µM	> 0.1 µM	CCOC1CCN(c2cccc(-c3csc(NC(=O)CNC(=O)c4ccn(C(C)(C)C)c4)n3)n2)CC1 [Compound 642]	
> 0.01 µM	> 0.01 µM			CS(=O)(=O)n1ccc(C(=O)NCC(=O)Nc2nc(-c3ccc4c(c3)OCC4)cs2)c1 [Compound 309]	
< 0.01 µM	< 0.01 µM			COC[C@H](NC(=O)c1ccn(S(C)(=O)=O)c1)C(=O)Nc1nc(-c2cccc(N3C[C@@H](C)O[C@@H](C)C3)c2)cs1 [Compound 371]	
		> 0.01 µM	> 0.01 µM	CN1CCCc2ccc(-c3csc(NC(=O)CNC(=O)c4ccn(S(C)(=O)=O)c4)n3)nc21 [Compound 394]	
< 0.01 µM	< 0.01 µM			C[C@H]1CN(c2cccc(-c3csc(NC(=O)CNC(=O)c4ccn(S(C)(=O)=O)c4)n3)c2)CC[C@@H]1O [Compound 183, N-[2-[[4-[3-[(3S,4S)-4-hydroxy-3-methyl-1-piperidyl]phenyl]thiazol-2-yl]amino]-2-oxo-ethyl]-1-methylsulfonyl-pyrrole-3-carboxamide]	
		> 0.01 µM	> 0.01 µM	COC[C@H](NC(=O)c1ccn(S(C)(=O)=O)c1)C(=O)Nc1nc(-c2cccc(N3CCC3)c2F)cs1 [Compound 573]	
		> 0.01 µM	> 0.01 µM	COC[C@H](NC(=O)c1ccn(S(C)(=O)=O)c1)C(=O)Nc1nc(-c2cccc(N3CC[C@H](C(F)F)C3)n2)cs1 [Compound 699]	
		> 0.01 µM	> 0.01 µM	C[C@@H]1CN(c2cccc(-c3csc(NC(=O)CNC(=O)c4ccn(C(C)(C)C)c4)n3)n2)C[C@@H]1F (racemic) [Compound 724]	
		> 0.01 µM	> 0.1 µM	N#CC1(n2ccc(C(=O)NCC(=O)Nc3nc(-c4cccc(OC5CC5)c4F)cs3)c2)CC1 [Compound 556]	
> 0.01 µM	> 0.01 µM			C[C@H](NC(=O)c1ccn(S(C)(=O)=O)c1)C(=O)Nc1nc(-c2cccc(-c3cnn(C)n3)c2)cs1 [Compound 355]	
< 0.01 µM	< 0.01 µM			CS(=O)(=O)n1cnc(C(=O)NCC(=O)Nc2nc(-c3cccc(-c4ccncc4)c3)cs2)c1 [Compound 46, 1-(methylsulfonyl)-N-(2-oxo-2-((4-(3-(pyridin-4-yl)phenyl)thiazol-2-yl)amino)ethyl)-1H-imidazole-4-carboxamide]	
		> 0.01 µM	> 0.1 µM	CC(C)(C)n1ccc(C(=O)NCC(=O)Nc2nc(-c3cccc(N4CC(F)C4)n3)cs2)c1 [Compound 687]	
		< 0.01 µM	< 0.01 µM	COC[C@H](NC(=O)c1ccn(C(C)(C)C)c1)C(=O)Nc1nc(-c2ccc3c(F)cn(C)c(=O)c3c2)cs1 [Compound 561]	
		< 0.01 µM	> 0.01 µM	COC[C@H](NC(=O)c1ccn(S(C)(=O)=O)c1)C(=O)Nc1nc(-c2ccc3c(c2)OCO3)cs1 [Compound 596]	
> 0.01 µM	> 0.01 µM			CS(=O)(=O)n1ccc(C(=O)NCC(=O)Nc2nc(-c3cccc(-c4cnnn4C(F)F)c3)cs2)c1 [Compound 278]	
		> 0.01 µM	> 0.01 µM	C[C@@H]1CCN(c2cccc(-c3csc(NC(=O)CNC(=O)c4ccn(C(C)(C)C)c4)n3)n2)C1 [Compound 673]	
		> 0.1 µM	> 0.1 µM	Cn1cc(N2CCN(c3cccc(-c4csc(NC(=O)CNC(=O)c5ccn(C(C)(C)C)c5)n4)n3)CC2)cn1 [Compound 706]	
		> 0.01 µM	> 0.01 µM	COC[C@H](NC(=O)c1ccn(S(C)(=O)=O)c1)C(=O)Nc1nc(-c2cc(F)cc(OC(F)(F)F)c2)cs1 [Compound 593]	
> 0.01 µM	> 0.01 µM			CC(C)(C)n1ccc(C(=O)NCC(=O)Nc2nc(-c3cccc(N4CCOCC4)c3)cs2)c1 [Compound 100, 1-tert-butyl-N-[2-[[4-(3-morpholinophenyl)thiazol-2-yl]amino]-2-oxo-ethyl]pyrrole-3-carboxamide]	
> 0.01 µM	> 0.01 µM			CCn1ccc2ccc(-c3csc(NC(=O)[C@H](COC)NC(=O)c4ccn(C(C)(C)C)c4)n3)cc2c1=O [Compound 347]	
		> 0.01 µM	> 0.01 µM	CS(=O)(=O)n1ccc(C(=O)NCC(=O)Nc2nc(-c3cccc([C@H]4[C@@H]5COC[C@@H]54)c3)cs2)c1 [Compound 717]	

IC50 (BRM; [1])	IC50 (BRG-1; [2])	IC50 (BRM; [3])	IC50 (BRG-1; [4])	Compound	also measured
> 0.01 µM	> 0.01 µM			COc1cccc(-c2csc(NC(=O)CNC(=O)c3ccn(S(C)(=O)=O)c3)n2)c1 [Compound 121, N-(2-((4-(3-methoxyphenyl)thiazol-2-yl)amino)-2-oxoethyl)-1-(methylsulfonyl)-1H-pyrrole-3-carboxamide]	
		< 0.01 µM	< 0.01 µM	Cc1cc(C)nc(-c2cccc(-c3csc(NC(=O)CNC(=O)c4ccn(S(C)(=O)=O)c4)n3)c2)c1 [Compound 406]	
		> 0.1 µM	> 0.1 µM	CC(C)(F)COc1cccc(-c2csc(NC(=O)CNC(=O)c3ccn(C4(C)COC4)c3)n2)c1 [Compound 484]	
		> 0.1 µM	> 0.1 µM	C[C@@H]1CN(c2cccc(-c3cccc(NC(=O)CNC(=O)c4ccn(S(C)(=O)=O)c4)c3F)c2)C[C@H](C)O1 [Compound 477, N-(2-((3′-(cis-2,6-dimethylmorpholino)-2-fluoro-[1,1′-biphenyl]-3-yl)amino)-2-oxoethyl)-1-(methylsulfonyl)-1H-pyrrole-3-carboxamide]	
		< 0.01 µM	< 0.01 µM	CS(=O)(=O)n1ccc(C(=O)NCC(=O)Nc2nc(-c3cccc(-c4ccnc(OCCN)c4)c3)cs2)c1 [Compound 442]	
> 0.01 µM	> 0.01 µM			C[C@H](NC(=O)c1ccn(S(C)(=O)=O)c1)C(=O)Nc1nc(-c2cccc(N3CCC3)c2)cs1 [Compound 364]	
		> 0.01 µM	> 0.1 µM	CC1(C)CC(c2cccc(-c3csc(NC(=O)CNC(=O)c4ccn(S(C)(=O)=O)c4)n3)c2)CC(C)(C)O1 [Compound 388]	
< 0.01 µM	< 0.01 µM			C[C@@H]1CN(c2cccc(-c3csc(NC(=O)CNC(=O)c4ccn(S(C)(=O)=O)c4)n3)c2)CC[C@H]1O [Compound 182, N-[2-[[4-[3-[(3R,4R)-4-hydroxy-3-methyl-1-piperidyl]phenyl]thiazol-2-yl]amino]-2-oxo-ethyl]-1-methylsulfonyl-pyrrole-3-carboxamide]	
> 0.01 µM	> 0.01 µM			CS(=O)(=O)n1ccc(C(=O)NCC(=O)Nc2nc(-c3cccc(C#CC4COC4)c3)cs2)c1 [Compound 349]	
> 0.1 µM	> 0.1 µM			CN(C(=O)CNC(=O)c1ccn(S(C)(=O)=O)c1)c1nc(-c2cccc(-c3ccncc3)c2)cs1 [Compound 152]	
		> 0.01 µM	> 0.01 µM	CN1CCOc2ccc(-c3csc(NC(=O)CNC(=O)c4cn(C(C)(C)C#N)cn4)n3)cc21 [Compound 784]	
		> 0.01 µM	> 0.1 µM	CC(C)(C)n1ccc(C(=O)NCC(=O)Nc2nc(-c3cccc(N4CCC5(CCOC5)C4)n3)cs2)c1 (stereo not drawn) [Compound 671]	
< 0.01 µM	> 0.01 µM			C[C@@H]1CN(c2nccc(-c3csc(NC(=O)CNC(=O)c4ccn(C(C)(C)C)c4)n3)n2)C[C@H](C)O1 [Compound 326]	
< 0.01 µM	< 0.01 µM			COC[C@H](NC(=O)c1ccn(S(C)(=O)=O)c1)C(=O)Nc1nc(-c2cccc(-c3ccnc(C)n3)c2)cs1 [Compound 357, N-[(1S)-1-(methoxymethyl)-2-[[4-[3-(2-methylpyrimidin-4-yl)phenyl]thiazol-2-yl]amino]-2-oxo-ethyl]-1-methylsulfonyl-pyrrole-3-carboxamide]	
		> 0.01 µM	> 0.1 µM	CC(C)(C)n1ccc(C(=O)NCC(=O)Nc2nc(-c3cccc(N4CC[C@H]5OCCC[C@@H]5C4)n3)cs2)c1 [Compound 659]	
				C[C@@H]1CN(c2cccc(-c3csc(NC(=O)CNC(=O)c4ncc(C(C)(C)C)s4)n3)n2)C[C@H](C)O1 [Compound 822]	IC50 (BRM; read-out: BRM IP50): > 0.01 µM; IC50 (BRG-1; read-out: BRG1 IP50): > 0.1 µM
> 0.01 µM	> 0.01 µM			Cc1nc(-c2cccc(-c3csc(NC(=O)CNC(=O)c4ccn(S(C)(=O)=O)c4)n3)c2)c[nH]1 [Compound 17]	
		> 0.01 µM	> 0.1 µM	CC(C)(C)n1ccc(C(=O)NCC(=O)Nc2nc(-c3cccc(OC4CC4)c3F)cs2)c1 [Compound 547]	
> 1 µM	> 1 µM			COC(C)(C)Cn1ccc(C(=O)NCC(=O)Nc2nc(-c3cccc(-c4ccn(C)n4)c3)cs2)c1 [Compound 29, 1-(2-methoxy-2-methylpropyl)-N-(2-((4-(3-(1-methyl-1H-pyrazol-3-yl)phenyl)thiazol-2-yl)amino)-2-oxoethyl)-1H-pyrrole-3-carboxamide]	
		< 0.01 µM	< 0.01 µM	COC[C@H](NC(=O)c1ccn(S(C)(=O)=O)c1)C(=O)Nc1nc(-c2cc(F)c3c(c2)C(F)(F)CC3)cs1 [Compound 733]	
> 0.01 µM	> 0.01 µM			CN(C)C(=O)CN(C)c1cc(-c2cccc(-c3csc(NC(=O)CNC(=O)c4ccn(S(C)(=O)=O)c4)n3)c2)ccn1 [Compound 13, N-(2-((4-(3-(2-((2-(dimethylamino)-2-oxoethyl)(methyl)amino)pyridin-4-yl)phenyl)thiazol-2-yl)amino)-2-oxoethyl)-1-(methylsulfonyl)-1H-pyrrole-3-carboxamide]	
< 0.01 µM	> 0.01 µM			COC[C@H](NC(=O)c1ccn(S(C)(=O)=O)c1)C(=O)Nc1nc(-c2cccc(N3CCC(O)CC3)c2)cs1 [Compound 369]	
